Where a SMILES comes first, the peptide text is derived from it. [ ]: non-standard residue; d: D form. Phe(4-CF3) = N[C@@H](Cc1ccc(C(F)(F)F)cc1)C(=O)O; Phe(4-Br) = N[C@@H](Cc1ccc(Br)cc1)C(=O)O; Phe(4-CN) = N#Cc1ccc(C[C@H](N)C(=O)O)cc1; Phe(4-Cl) = N[C@@H](Cc1ccc(Cl)cc1)C(=O)O; Phe(4-F) = N[C@@H](Cc1ccc(F)cc1)C(=O)O; Phe(4-I) = N[C@@H](Cc1ccc(I)cc1)C(=O)O; 1Nal = N[C@@H](Cc1cccc2ccccc12)C(=O)O; hPhe = N[C@@H](CCc1ccccc1)C(=O)O; 4Pal = N[C@@H](Cc1ccncc1)C(=O)O; Pen = CC(C)(S)[C@H](N)C(=O)O; hLeu = CC(C)CC[C@H](N)C(=O)O; hCys = N[C@@H](CCS)C(=O)O; Nle = CCCC[C@H](N)C(=O)O; Nva = CCC[C@H](N)C(=O)O; Abu = CC[C@H](N)C(=O)O; Aib = CC(C)(N)C(=O)O
Target: T1, HIF-1α PAS-B domain (Homo sapiens, UniProt Q16665)
T1 construct: made in house
T1 sequence (Q16665 238-349 limits assumed): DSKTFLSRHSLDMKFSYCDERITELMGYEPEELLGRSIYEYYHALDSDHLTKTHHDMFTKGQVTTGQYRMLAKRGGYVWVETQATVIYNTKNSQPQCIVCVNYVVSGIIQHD
Assay: MST binding to the PAS-B domain of HIF-1α
Details: KD for HIF-1α PAS-B, MST; mean ± SEM, n = 2 (n = 1 for most C1 analogues, n = 3 in Figure S2)
Method: (§1) All reagents were purchased from Fisher Scientific or Sigma Aldrich UK unless specified otherwise.
(§2) Restriction enzymes and microbiology reagents were purchased from New England Biolabs Inc., Fisher Scientific (UK) or Promega (UK) and were used as directed by the manufacturer. Primers and oligonucleotides were synthesised by Integrated DNA Technologies (UK). DNA sequencing was carried out by Eurofins MWG Operon (Germany).
(§3) Construction of the RTHS and SICLOPPS library, screening, purification of recombinant HIF proteins, and the PLA was conducted as previously described in Miranda et al., J. Am. Chem. Soc., 2013, 135(28); […]
(§4) Protein labelling with MST dye
(§5) Protein was buffer exchanged from storage buffer into labelling buffer (0.1 M NaHCO3, pH 8.5) using a PD spintrap G-25 column (GE healthcare). The protein concentration was then adjusted to 20 µM.
(§6) The commercially sourced MST dye (NanoTemper) was prepared as a 470 µM solution in DMSO, which was then further diluted to 60 µM using labelling buffer. To the protein solution was added an equal volume of dye solution, and the labelling reaction was left for 1 hour in the dark at room temperature.
(§7) The labelled protein was separated from unreacted dye by elution through a PD minitrap G-25 column (GE healthcare). Labelled protein was then aliquoted and stored at -80 °C. Extent of labelling was measured by the absorbance obtained using the UV-vis mode on a NanoDrop ND-1000 Spectrophotometer (NanoDrop Technologies, USA).
(§8) Labelled protein was thawed on ice and diluted to 50 nM in assay buffer containing 50 mM Tris pH 8.0, 150 mM NaCl, 5% (v/v) glycerol, 1 mM TCEP and 0.05% TWEEN-20. The protein solution was then centrifuged at 12000 rpm for 15 minutes at 4 °C and left on ice. Compounds were prepared and serially diluted in DMSO at 10x assay concentration, before diluting to 2x assay concentration in assay buffer.
(§9) The 2x compound solutions were then mixed 1:1 (v/v) with 50 nM labelled protein solution and left to incubate for 1 hour at room temperature. Solutions were then loaded into Monolith NT.115 Premium Capillaries (NanoTemper) and placed in the sample tray. MST experiments were carried out

SMILES | Kd [µM]
CC[C@H](C)[C@@H]1NC(=O)[C@H](C(C)C)NC(=O)[C@H](CCCNC(=N)N)NC(=O)[C@H](CS)NC(=O)[C@H](Cc2ccccc2)NC(=O)[C@H]([C@@H](C)CC)NC1=O [cyclo-CRVIIF] (cyclo(CRVIIF); ring closure inferred) | 65.5 ± 11.4

Same assay, conditions: MST KD ratio

SMILES | loss of affinity (KD) compared to cyclo-CRLIIF [fold] | improvement in HIF-1α binding affinity compared to the parent cyclic peptide cyclo-CRLIIF [fold]
CC[C@H](C)[C@H](NC(C)=O)C(=O)N[C@@H](Cc1ccccc1)C(=O)N[C@@H](CS)C(N)=O [Ac-IFC-NH2] (Ac-Ile-Phe-Cys-NH2) | ~10 | 
CC[C@H](C)[C@@H]1NC(=O)[C@H](CC(C)C)NC(=O)[C@H](CCCNC(=N)N)NC(=O)[C@H](CS)NC(=O)[C@H](Cc2ccncc2)NC(=O)[C@H]([C@@H](C)CC)NC1=O [4-Pal, cyclo-CRLII(4-Pal)] (cyclo([4Pal]CRLII)) | ~11 | 
CC[C@H](C)[C@@H]1NC(=O)[C@H](CC(C)C)NC(=O)[C@H](CCCNC(=N)N)NC(=O)[C@H](CS)NC(=O)[C@H](CCc2ccccc2)NC(=O)[C@H]([C@@H](C)CC)NC1=O [hF, cyclo-CRLIIhF] (cyclo(CRLII[hPhe])) |  | 3

Same assay, conditions: MST KD ratio vs Ac-IFC-NH2

SMILES | improvement in HIF-1α affinity over the parent tripeptide [fold]
CC[C@H](C)[C@H](NC(C)=O)C(=O)N[C@@H](Cc1ccc(I)cc1)C(=O)N[C@@H](CS)C(N)=O [Ac-I(4-iodo)FC-NH2] (Ac-Ile-[Phe(4-I)]-Cys-NH2) | ~3

Same assay, conditions: MST; mean ± SEM, n = 2 (n = 1 for most C1 analogues, n = 3 in Figure S2); read-out: KD for HIF-1α PAS-B

SMILES | Kd [µM]
CC[C@H](C)[C@H](NC(C)=O)C(=O)N[C@@H](Cc1ccc(I)cc1)C(=O)N[C@@H](CS)C(N)=O [Ac-I(4-iodo)FC-NH2] (Ac-Ile-[Phe(4-I)]-Cys-NH2) | 21.5 ± 3
CC[C@H](C)[C@@H]1NC(=O)[C@H](CC(C)C)NC(=O)[C@H](CCCNC(=N)N)NC(=O)[C@H](CS)NC(=O)[C@H](Cc2ccc(O)cc2)NC(=O)[C@H]([C@@H](C)CC)NC1=O [OH, cyclo-CRLIIY] (cyclo(CRLIIY)) | 7.4 ± 0.1
CCCC[C@@H]1NC(=O)[C@H]([C@@H](C)CC)NC(=O)[C@H](CC(C)C)NC(=O)[C@H](CCCNC(=N)N)NC(=O)[C@H](CS)NC(=O)[C@H](Cc2ccccc2)NC1=O [Nle, cyclo-CRLINleF] (cyclo(CRLI[Nle]F)) | 7.5 ± 0.9
CC[C@H](C)[C@@H]1NC(=O)[C@H](CC(C)C)NC(=O)[C@H](CCCNC(=N)N)NC(=O)[C@H](CCS)NC(=O)[C@H](Cc2ccccc2)NC(=O)[C@H]([C@@H](C)CC)NC1=O [hC, cyclo-hCRLIIF] (cyclo(F[hCys]RLII)) | > 50
CC[C@H](C)[C@@H]1NC(=O)[C@H](CC(C)C)NC(=O)[C@H](CCCNC(=N)N)NC(=O)[C@H](CS)NC(=O)[C@H](Cc2ccccc2)NC(=O)[C@H](C(C)C)NC1=O [V, cyclo-CRLIVF] (cyclo(CRLIVF)) | 15.9 ± 0.3
CC[C@H](C)[C@@H]1NC(=O)[C@H](CC(C)C)NC(=O)[C@H](CCCNC(=N)N)NC(=O)[C@H](CS)NC(=O)[C@H](Cc2ccccc2)NC(=O)[C@H](CC(C)C)NC1=O [L, cyclo-CRLILF] (cyclo(CRLILF)) | 11.4 ± 0.4
CC[C@H](C)[C@@H]1NC(=O)[C@H](CC(C)C)NC(=O)[C@H](CCCNC(=N)N)NC(=O)[C@H](CO)NC(=O)[C@H](Cc2ccccc2)NC(=O)[C@H]([C@@H](C)CC)NC1=O [S, cyclo-SRLIIF] (cyclo(FSRLII)) | > 100
CC[C@H](C)[C@@H]1NC(=O)[C@H](CC(C)C)NC(=O)[C@H](CCCNC(=N)N)NC(=O)[C@H]([C@@H](C)O)NC(=O)[C@H](Cc2ccccc2)NC(=O)[C@H]([C@@H](C)CC)NC1=O [T, cyclo-TRLIIF] (cyclo(FTRLII)) | > 100
CCC[C@@H]1NC(=O)[C@H]([C@@H](C)CC)NC(=O)[C@H](CC(C)C)NC(=O)[C@H](CCCNC(=N)N)NC(=O)[C@H](CS)NC(=O)[C@H](Cc2ccccc2)NC1=O [Nva, cyclo-CRLINvaF] (cyclo(CRLI[Nva]F)) | 22.1 ± 2.6
CC[C@H](C)[C@@H]1NC(=O)[C@H](CC(C)C)NC(=O)[C@H](CCCNC(=N)N)NC(=O)[C@H](C(C)(C)S)NC(=O)[C@H](Cc2ccccc2)NC(=O)[C@H]([C@@H](C)CC)NC1=O [Pen, cyclo-PenRLIIF] (cyclo(F[Pen]RLII)) | 5.7 ± 0.9
CC[C@H](C)[C@@H]1NC(=O)[C@H](CC(C)C)NC(=O)[C@H](CCCNC(=N)N)NC(=O)[C@H](CS)NC(=O)[C@H](Cc2ccc(Br)cc2)NC(=O)[C@H]([C@@H](C)CC)NC1=O [Br, cyclo-CRLII(4-Br)F] (cyclo(CRLII[Phe(4-Br)])) | 1 ± 0.2
CC[C@H](C)[C@@H]1NC(=O)[C@H](CC(C)C)NC(=O)[C@H](CCCNC(=N)N)NC(=O)[C@H](CS)NC(=O)[C@H](Cc2ccc(F)cc2)NC(=O)[C@H]([C@@H](C)CC)NC1=O [F, cyclo-CRLII(4-F)F] (cyclo(CRLII[Phe(4-F)])) | 1.7 ± 0.2
CC[C@H](C)[C@@H]1NC(=O)[C@H](CC(C)C)NC(=O)[C@H](CCCNC(=N)N)NC(=O)[C@H](CS)NC(=O)[C@H](CCc2ccccc2)NC(=O)[C@H]([C@@H](C)CC)NC1=O [hF, cyclo-CRLIIhF] (cyclo(CRLII[hPhe])) | 1.2 ± 0.7
CC[C@H](C)[C@@H]1NC(=O)[C@H](CC(C)C)NC(=O)[C@H](CCCNC(=N)N)NC(=O)[C@H](CS)NC(=O)[C@H](Cc2ccccc2)NC(=O)[C@H](CCC(C)C)NC1=O [hL, cyclo-CRLIhLF] (cyclo(CRLI[hLeu]F)) | 4.4 ± 1.3
CC[C@H](C)[C@@H]1NC(=O)[C@H](CC(C)C)NC(=O)[C@H](CCCNC(=N)N)NC(=O)[C@H](CS)NC(=O)[C@H](Cc2ccc(Cl)cc2)NC(=O)[C@H]([C@@H](C)CC)NC1=O [Cl, cyclo-CRLII(4-Cl)F] (cyclo(CRLII[Phe(4-Cl)])) | 1.2 ± 0.3
CC[C@@H]1NC(=O)[C@H]([C@@H](C)CC)NC(=O)[C@H](CC(C)C)NC(=O)[C@H](CCCNC(=N)N)NC(=O)[C@H](CS)NC(=O)[C@H](Cc2ccccc2)NC1=O [Abu, cyclo-CRLIAbuF] (cyclo([Abu]FCRLI)) | 73.4 ± 4.8
CC[C@H](C)[C@@H]1NC(=O)[C@H](CC(C)C)NC(=O)[C@H](CCCNC(=N)N)NC(=O)[C@H](CS)NC(=O)[C@H](Cc2ccc(C#N)cc2)NC(=O)[C@H]([C@@H](C)CC)NC1=O [CN, cyclo-CRLII(4-CN)F] (cyclo(CRLII[Phe(4-CN)])) | 4.4 ± 0.1
CC[C@H](C)[C@@H]1NC(=O)[C@H](CC(C)C)NC(=O)[C@H](CCCNC(=N)N)NC(=O)[C@H](CS)NC(=O)[C@H](Cc2ccc(C(F)(F)F)cc2)NC(=O)[C@H]([C@@H](C)CC)NC1=O [CF3, cyclo-CRLII(4-CF3)F] (cyclo(CRLII[Phe(4-CF3)])) | 1.1 ± 0.5
CC[C@H](C)[C@@H]1NC(=O)[C@H](CC(C)C)NC(=O)[C@H](CCCNC(=N)N)NC(=O)[C@H](CS)NC(=O)[C@H](Cc2ccccc2)NC(=O)C(C)(C)NC1=O [Aib, cyclo-CRLIAibF] (cyclo([Aib]FCRLI)) | 22.4 ± 0.1
CC[C@H](C)[C@@H]1NC(=O)[C@H](CC(C)C)NC(=O)[C@H](CCCNC(=N)N)NC(=O)[C@H](CSC)NC(=O)[C@H](Cc2ccccc2)NC(=O)[C@H]([C@@H](C)CC)NC1=O [C(Me), cyclo-C(Me)RLIIF] (cyclo(C(Me)RLIIF)) | > 50
CC[C@H](C)[C@@H]1NC(=O)[C@H](CC(C)C)NC(=O)[C@H](CCCNC(=N)N)NC(=O)[C@H](CCSC)NC(=O)[C@H](Cc2ccccc2)NC(=O)[C@H]([C@@H](C)CC)NC1=O [M, cyclo-MRLIIF] (cyclo(FMRLII)) | > 100
CC[C@H](C)[C@@H]1NC(=O)[C@H](CC(C)C)NC(=O)[C@H](CCCNC(=N)N)NC(=O)[C@H](CS)NC(=O)[C@H](Cc2cccc3ccccc23)NC(=O)[C@H]([C@@H](C)CC)NC1=O [1-Nal, cyclo-CRLII(1-Nal)] (cyclo([1Nal]CRLII)) | 1.7 ± 0.5

Same assay, conditions: ratio of MST KD values

SMILES | selectivity for HIF-1α over HIF-2α [fold]
CC[C@H](C)[C@@H]1NC(=O)[C@H](C(C)C)NC(=O)[C@H](CCCNC(=N)N)NC(=O)[C@H](CS)NC(=O)[C@H](Cc2ccccc2)NC(=O)[C@H]([C@@H](C)CC)NC1=O [cyclo-CRVIIF] (cyclo(CRVIIF); ring closure inferred) | 2

Target: T2, HIF-2α PAS-B domain (Homo sapiens, UniProt Q99814)
T2 construct: made in house
T2 sequence (Q99814 240-350 limits assumed): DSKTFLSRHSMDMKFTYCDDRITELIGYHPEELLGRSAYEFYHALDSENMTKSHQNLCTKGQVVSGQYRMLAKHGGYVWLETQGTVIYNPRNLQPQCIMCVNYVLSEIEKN
Assay: MST binding to the PAS-B domain of HIF-2α
Details: MST; mean (n = 2) ± SEM
Method: as §1, §2, §3, §4, §5, §6, §7, §8, §9

SMILES | Kd [µM]
CC[C@H](C)[C@@H]1NC(=O)[C@H](CC(C)C)NC(=O)[C@H](CCCNC(=N)N)NC(=O)[C@H](CS)NC(=O)[C@H](Cc2ccccc2)NC(=O)[C@H]([C@@H](C)CC)NC1=O [cyclo-CRLIIF] (cyclo(CRLIIF)) | 10.9 ± 1.1

Source: article PMC10996005, “Identification and Development of Cyclic Peptide Inhibitors of Hypoxia Inducible Factors 1 and 2 That Disrupt Hypoxia-Response Signaling in Cancer Cells” (Journal of the American Chemical Society, 2024)
